Results from patent publication US20250145589A1, “PYRIDINE DERIVATIVE AND USE THEREOF” (SICHUAN HUIYU PHARMACEUTICAL CO., LTD., priority 2021, published 2025).
Like-named read-outs stand apart in the source and are kept apart here.

Experiments:
[1] = system: NCI-H358 cells (KRAS G12C mutant); test: NCI-H358 cell proliferation inhibition (CellTiter-Glo); format: cell-based; conditions: Homo sapiens, NCI-H358, 72 h; H358 cells (G12C mutation), 3 days, Table 6; read-out: NCI-H358 (IC50)
Protocol: The CellTiter-Glo®, assay was used to detect the number of viable cells, in order to evaluate the anti-proliferation efficacy of compounds. […] The compounds were serially diluted 5-fold in DMSO to obtain 8 concentrations, and then further diluted with RPMI-640 (10% FBS) cell culture medium to obtain the working solutions (5′), 20 μL of each working solution was added to the cell culture supernatant in each well, and the plate was further incubated for 3 days at 37° C. with 5% CO2. The plate was then equilibrated with CellTiter-Glo® reagent at room temperature (25° C.) for 10-30 minutes. After aspirating 50 μL of the medium, 50 μL of CellTiter-Glo® reagent was added. The cells were thoroughly mixed with the CellTiter-Glo® reagent using a microplate shaker for 2 minutes, and then incubated at room temperature for 10 minutes. The 96-well plate was placed in a multi-mode microplate reader to record the luminescence values (RLU). The inhibition rate was calculated through the following equation: [formula] Data were analyzed using GraphPad Prism for IC50 values (Note: The negative control refers to the group without inhibitor).

PI3Kα = PI3Kα (Homo sapiens (Human), UniProt P42336); test: Inhibition of PI3Kα efficacy assay (ADP-Glo kinase assay); format: biochemical; conditions: read-out: PI3Kα inhibitory activity (IC50)
Chain of PI3Kα (P42336 whole entry): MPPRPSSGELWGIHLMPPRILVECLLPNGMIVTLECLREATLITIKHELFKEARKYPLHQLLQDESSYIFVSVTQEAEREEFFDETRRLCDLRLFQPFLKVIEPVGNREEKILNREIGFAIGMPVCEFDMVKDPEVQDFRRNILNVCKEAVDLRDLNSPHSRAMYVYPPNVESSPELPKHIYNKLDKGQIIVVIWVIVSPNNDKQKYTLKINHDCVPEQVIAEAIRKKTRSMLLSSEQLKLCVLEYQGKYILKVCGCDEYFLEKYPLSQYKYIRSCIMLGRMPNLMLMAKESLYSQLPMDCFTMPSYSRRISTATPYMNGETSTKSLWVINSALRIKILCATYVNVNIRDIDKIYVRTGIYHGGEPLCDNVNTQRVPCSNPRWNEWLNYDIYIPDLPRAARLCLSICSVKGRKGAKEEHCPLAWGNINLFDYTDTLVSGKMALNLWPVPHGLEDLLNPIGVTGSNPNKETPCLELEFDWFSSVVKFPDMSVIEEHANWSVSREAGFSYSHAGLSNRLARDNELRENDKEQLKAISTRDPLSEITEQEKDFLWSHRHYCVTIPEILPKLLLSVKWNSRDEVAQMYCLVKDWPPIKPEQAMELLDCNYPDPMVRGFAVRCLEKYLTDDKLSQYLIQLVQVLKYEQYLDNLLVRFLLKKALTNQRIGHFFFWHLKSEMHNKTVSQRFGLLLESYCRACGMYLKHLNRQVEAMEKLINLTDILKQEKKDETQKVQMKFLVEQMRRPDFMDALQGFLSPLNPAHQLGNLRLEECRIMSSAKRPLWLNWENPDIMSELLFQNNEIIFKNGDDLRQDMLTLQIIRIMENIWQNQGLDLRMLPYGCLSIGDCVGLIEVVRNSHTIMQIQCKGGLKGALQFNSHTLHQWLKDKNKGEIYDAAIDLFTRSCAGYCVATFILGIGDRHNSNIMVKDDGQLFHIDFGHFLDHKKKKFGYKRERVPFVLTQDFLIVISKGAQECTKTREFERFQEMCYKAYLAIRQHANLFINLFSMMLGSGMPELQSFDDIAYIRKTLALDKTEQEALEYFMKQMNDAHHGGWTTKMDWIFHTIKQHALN
Chain of PI3Kα (P27986 whole entry partner): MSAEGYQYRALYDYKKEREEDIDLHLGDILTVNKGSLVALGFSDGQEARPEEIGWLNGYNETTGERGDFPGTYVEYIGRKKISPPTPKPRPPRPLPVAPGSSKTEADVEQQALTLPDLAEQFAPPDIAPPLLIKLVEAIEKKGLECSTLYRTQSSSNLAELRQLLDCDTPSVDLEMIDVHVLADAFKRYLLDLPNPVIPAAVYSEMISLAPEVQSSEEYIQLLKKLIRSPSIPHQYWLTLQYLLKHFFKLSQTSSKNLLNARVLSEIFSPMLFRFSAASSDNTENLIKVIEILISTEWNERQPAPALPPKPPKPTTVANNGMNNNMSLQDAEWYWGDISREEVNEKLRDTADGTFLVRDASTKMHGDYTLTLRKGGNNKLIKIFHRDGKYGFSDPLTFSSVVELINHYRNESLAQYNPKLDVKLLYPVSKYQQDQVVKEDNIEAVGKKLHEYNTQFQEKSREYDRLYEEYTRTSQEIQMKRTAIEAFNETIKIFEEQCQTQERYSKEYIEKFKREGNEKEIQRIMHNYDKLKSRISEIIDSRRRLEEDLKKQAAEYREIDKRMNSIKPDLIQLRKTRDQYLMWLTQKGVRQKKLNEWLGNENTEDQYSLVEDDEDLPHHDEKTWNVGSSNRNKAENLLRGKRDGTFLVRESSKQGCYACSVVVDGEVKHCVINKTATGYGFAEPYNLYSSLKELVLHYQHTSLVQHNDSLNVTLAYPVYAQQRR
Protocol: Inhibition of PI3Kα Efficacy assay The ADP-Glo™ kinase assay was used to assess the inhibition of PI3Kα with our compounds. The utilized proteins and assay reagents were obtained from the ADP-Glo™ Kinase Assay Kit (Promega). Initially, a 2 mM stock solution of the test compound (dissolved in DMSO) was serially diluted in five-fold concentrations using DMSO to obtain eight working solutions 1 (200′). […] Subsequently, 2 μL of 2.5×PI and ATP solution mixture were added to each well, mixed, and incubated at RT for 60 minutes. Then, 5 μL of ADP-Glo (containing 10 mM MgCl2) reagent was added to each well, mixed, and incubated at RT for 40 minutes. Finally, 10 μL of the Kinase Detection Reagent was added to each well, mixed, and incubated at RT for 40 minutes. […] Data were analyzed using GraphPad Prism with log(inhibitor) vs. response—Variable Slope(four parameters) fitting calculations for […]. (Note: The negative control refers to the group without inhibitor, and the blank control refers to the group without enzyme.) The data were presented in Tables 1 to 4.

| Structure (SMILES) | IC50 [1] [nM] | IC50 (PI3Kα; Table 4) [nM] | IC50 (PI3Kα; Table 2) [nM] | IC50 (PI3Kα; Table 1) [nM] |
| --- | --- | --- | --- | --- |
| COc1ncc(-c2ccc3ncnc(N4CC5CCC(C4)N5C(=O)/C=C/C(C)=O)c3c2)cc1NS(=O)(=O)c1c(F)cncc1F [Example 162, 3,5-difluoro-N-(2-methoxy-5-(4-(8-((E)-4-oxopent-2-enoyl)-3,8-diazabicyclo[3.2.1]octan-3-yl)quinazolin-6-yl)pyridin-3-yl)pyridine-4-sulfonamide] | 141 | 2.4 |  |  |
| C=C(C(=O)N1CCN(c2ncnc3ccc(-c4cnc(OC)c(NS(=O)(=O)c5ccc(F)cc5F)c4)cc23)CC1)C(C)C [Example 63, 2,4-difluoro-N-(2-methoxy-5-(4-(4-(3-methyl-2-methylene-butanoyl)piperazin-1-yl)quinazolin-6-yl)pyridin-3-yl) benzene-sulfonamide] | 19.6 |  | 6.2 |  |
| C=CC(=O)N1CCN(c2nc(OC[C@@H]3CCCN3C)nc3ccc(-c4cnc(OC)c(NS(=O)(=O)c5ccc(F)cc5F)c4)cc23)C[C@@H]1CC#N [Example 5, N-(5-(4-((S)-4-acryloyl-3-(cyanomethyl)piperazin-1-yl)-2-(((S)-1-methylpyrrolidin-2-yl)methoxy)quinazolin-6-yl)-2-methoxypyridin-3-yl)-2,4-difluorobenzenesulfonamide] | 5390 |  |  |  |
| C=CC(=O)N1CCN(c2nc(C)nc3ccc(-c4cnc(OC)c(NS(=O)(=O)c5ccc(F)cc5F)c4)cc23)CC1 [Example 29, N-(5-(4-(4-acryloylpiperazin-1-yl)-2-methylquinazolin-6-yl)-2-methoxypyridin-3-yl)-2,4-difluorobenzenesulfonamide] |  |  |  | 41.3 |
| COc1ncc(-c2ccc3ncnc(N4CC5CCC(C4)N5C(=O)/C=C/C(C)=O)c3c2)cc1NS(=O)(=O)c1ccccc1F [Example 151, 2-fluoro-N-(2-methoxy-5-(4-(8-((E)-4-oxopent-2-enoyl)-3,8-diazabicyclo[3.2.1]octan-3-yl)quinazolin-6-yl)pyridin-3-yl)benzenesulfonamide] | 80.3 | 5.9 |  |  |
| COc1ncc(-c2ccc3ncnc(N4CCN(C(=O)c5cccc(O)c5)CC4)c3c2)cc1NS(=O)(=O)c1ccc(F)cc1F [Example 69, 2,4-difluoro-N-(5-(4-(4-(3-hydroxy-benzoyl)piperazin-1-yl)quinazolin-6-yl)-2-methoxy-pyridin-3-yl) benzene-sulfonamide] | 60.7 |  |  |  |
| C=CC(=O)N1C[C@H](C)N(c2ncnc3ccc(-c4cnc(OC)c(NS(=O)(=O)c5c(F)cccc5F)c4)cc23)C[C@H]1C [Example 53, N-(5-(4-((2S,5R)-4-acryloyl-2,5-dimethylpiperazin-1-yl)quinazolin-6-yl)-2-methoxypyridin-3-yl)-2,6-difluorobenzene-sulfonamide] | 520 |  | 4.4 |  |
| COc1ncc(-c2ccc3ncnc(N4CC5CC(C4)N5C(=O)/C=C/C(C)=O)c3c2)cc1NS(=O)(=O)c1ccc(F)cc1F [Example 142, (E)-2,4-difluoro-N-(2-methoxy-5-(4-(6-(4-oxopent-2-enoyl)-3,6-diazabicyclo[3.1.1]heptan-3-yl)quinazolin-6-yl)pyridin-3-yl)benzenesulfonamide] | 351 | 0.57 |  |  |
| COc1ncc(-c2ccc3ncnc(N4CCN(C(=O)/C=C/C(C)=O)CC4)c3c2)cc1NS(=O)(=O)c1ccc(C(=O)O)cc1F [Example 209, (E)-3-fluoro-4-(N-(2-methoxy-5-(4-(4-(4-oxopent-2-enoyl)piperazin-1-yl)quinazolin-6-yl)pyridin-3-yl)sulfamoyl)benzoic acid] |  | 0.57 |  |  |
| C=C(F)C(=O)N1C[C@H](C)N(c2ncnc3ccc(-c4cnc(OC)c(NS(=O)(=O)c5c(F)cccc5F)c4)cc23)C[C@H]1C [Example 52, 2,6-difluoro-N-(5-(4-((2S,5R)-4-(2-fluoroacryloyl)-2.5-dimethylpiperazin-1-yl)quinazolin-6-yl)-2-methoxypyridin-3-yl) benzenesulfonamide] |  |  | 9.1 |  |
| CCCC(=O)/C=C/C(=O)N1CCN(c2ncnc3ccc(-c4cnc(OC)c(N(C)S(=O)(=O)c5ccc(F)cc5F)c4)cc23)CC1 [Example 80, (E)-2,4-difluoro-N-(2-methoxy-5-(4-(4-(4-oxohept-2-enoyl)piperazin-1-yl)quinazolin-6-yl)pyridin-3-yl)-N-methylbenzenesulfonamide] | 784 |  |  |  |

Now from value to compound:

| IC50 [1] [nM] | IC50 (PI3Kα; Table 4) [nM] | IC50 (PI3Kα; Table 2) [nM] | IC50 (PI3Kα; Table 1) [nM] | Structure (SMILES) |
| --- | --- | --- | --- | --- |
|  |  | 111 |  | COc1c(F)cc(-c2ccc3ncnc(N4CCN(C(=O)/C=C/C(C)=O)CC4)c3c2)cc1NS(=O)(=O)c1ccc(F)cn1 [Example 121, (E)-5-fluoro-N-(3-fluoro-2-methoxy-5-(4-(4-(4-oxopent-2-enoyl)piperazin-1-yl)quinazolin-6-yl)phenyl)pyridine-2-sulfonamide] |
| 156 | 2.8 |  |  | COc1ncc(-c2ccc3ncnc(N4CCN(C(=O)/C=C/C(C)=O)C[C@@H]4C)c3c2)cc1NS(=O)(=O)c1c(F)cncc1F [Example 164, (S,E)-3,5-difluoro-N-(2-methoxy-5-(4-(2-methyl-4-(4-oxopent-2-enoyl)piperazin-1-yl)quinazolin-6-yl)pyridin-3-yl)pyridine-4-sulfonamide] |
| 638 | 9.2 |  |  | COc1ncc(-c2ccc3ncnc(NC4CCN(C(=O)/C=C/C(C)=O)C4)c3c2)cc1NS(=O)(=O)c1ccc(F)cc1F (stereo not drawn) [Example 148, (E)-2,4-difluoro-N-(2-methoxy-5-(4-((1-(4-oxopent-2-enoyl)pyrrolidin-3-yl)amino)quinazolin-6-yl)pyridin-3-yl)benzenesulfonamide] |
|  | 270 |  |  | [2H]C([2H])([2H])n1cc(-c2ccc3ncnc(N4CCN(C(=O)/C=C/C(C)=O)CC4)c3c2)cc(NS(=O)(=O)c2ccc(F)cc2F)c1=O [Example 244, (E)-2,4-difluoro-N-(1-(methyl-d3)-2-oxo-5-(4-(4-(4-oxopent-2-enoyl)piperazin-1-yl)quinazolin-6-yl)-1,2-dihydropyridin-3-yl)benzenesulfonamide] |
| 1090 |  |  |  | COc1ncc(-c2ccc3ncnc(N4CCC5(CN(C(=O)/C=C/C(C)=O)C5)C4)c3c2)cc1N(C)S(=O)(=O)c1ccc(F)cc1F [Example 81, (E)-2,4-difluoro-N-(2-methoxy-5-(4-(2-(4-oxopent-2-enoyl)-2,6-diazaspiro[3.4]octan-6-yl)quinazolin-6-yl)pyridin-3-yl)-N-methylbenzenesulfonamide] |
| 155 |  | 0.54 |  | C=CC(=O)N1CCN(c2ncnc3ccc(-c4cnc(OC)c(NS(=O)(=O)c5c(F)cc(F)cc5F)c4)cc23)CC1 [Example 100, N-(5-(4-(4-acryloylpiperazin-1-yl)quinazolin-6-yl)-2-methoxypyridin-3-yl)-2,4,6-trifluorobenzenesulfonamide] |
| 155 |  | 3.5 |  | CC(=O)/C=C/C(=O)N1CCN(c2ncnc3ccc(-c4cnc(OC5CC5)c(NS(=O)(=O)c5ccc(F)cc5F)c4)cc23)CC1 [Example 110, (E)-N-(2-cyclopropoxy-5-(4-(4-(4-oxopent-2-enoyl)piperazin-1-yl)quinazolin-6-yl)pyridin-3-yl)-2,4-difluorobenzenesulfonamide] |
| 46.5 |  | 1.9 |  | C=C(F)C(=O)N1CCN(c2ncnc3ccc(-c4cnc(OC)c(NS(=O)(=O)c5c(F)cccc5F)c4)cc23)C[C@@H]1CC#N [Example 115, (S)-N-(5-(4-(3-(cyanomethyl)-4-(2-fluoroacryloyl)piperazin-1-yl)quinazolin-6-yl)-2-methoxypyridin-3-yl)-2,6-difluorobenzenesulfonamide] |
| 37 |  | 1.5 |  | C=CC(=O)N1CCN(c2ncnc3ccc(-c4cnc(OC)c(NS(=O)(=O)c5c(F)cccc5F)c4)cc23)C[C@@H]1CC#N [Example 117, (S)-N-(5-(4-(4-acryloyl-3-(cyanomethyl)piperazin-1-yl)quinazolin-6-yl)-2-methoxypyridin-3-yl)-2,6-difluorobenzenesulfonamide] |
| 80.6 | 0.3 |  |  | COc1ncc(-c2ccc3ncnc(N4CC5(CN(C(=O)/C=C/C(C)=O)C5)C4)c3c2)cc1NS(=O)(=O)c1ccc(F)cc1F [Example 141] |
|  | 5.3 |  |  | CC(=O)/C=C/C(=O)N1CCN(c2ncnc3ccc(-c4cnc(CO)c(NS(=O)(=O)c5ccc(F)cc5F)c4)cc23)CC1 [Example 183, (E)-2,4-difluoro-N-(2-(hydroxy-methyl)-5-(4-(4-(4-oxopent-2-enoyl)piperazin-1-yl)quinazolin-6-yl)pyridin-3-yl)benzene-sulfonamide] |
| 790 | 1.6 |  |  | C=CC(=O)N1CCC(Nc2ncnc3ccc(-c4cnc(OC)c(NS(=O)(=O)c5ccc(F)cc5F)c4)cc23)C1 (stereo not drawn) [Example 147, N-(5-(4-((1-acryloylpyrrolidin-3-yl)amino)quinazolin-6-yl)-2-methoxypyridin-3-yl)-2,4-difluorobenzenesulfonamide] |
